Converted amounts (≈) assume the structure as drawn. The source made the active and inactive calls. The rule behind the calls is not given here.
Tests used:
[1] = tested on: Mycobacterium tuberculosis variant bovis; experiment: Antimycobacterial activity against Mycobacterium bovis BCG ATCC 35734 assessed as inhibition of bacterial growth incubated for 5 days in 7H9 standard media by broth dilution method; format: functional; conditions: BCG ATCC 35734, 120 h, time 5 day
[2] = tested on: Mycobacterium tuberculosis variant bovis; experiment: Antimycobacterial activity against Mycobacterium bovis BCG ATCC 35734 assessed as inhibition of bacterial growth incubated for 5 days in 7H9 medium with omission of glycerol by broth dilution method; format: functional; conditions: BCG ATCC 35734, 120 h, time 5 day
[3] = tested on: Mycobacterium tuberculosis variant bovis; experiment: Antimycobacterial activity against Mycobacterium bovis BCG ATCC 35734 assessed as inhibition of bacterial growth incubated for 5 days in 7H9 medium with addition of 10% FBS by broth dilution method; format: functional; conditions: BCG ATCC 35734, 120 h, time 5 day
[4] = tested on: Mycobacterium tuberculosis variant bovis; experiment: Disruption of proton motive force in Mycobacterium bovis BCG ATCC 35734 assessed as loss in mitochondrial membrane potential by measuring decline in fluorescence ratio at 4XMIC90 measured after >=12 hrs by DiOC2 based fluorescence analysis; format: functional, organism-based
[5] = tested on: Mycobacterium tuberculosis variant bovis; experiment: Myco-bactericidal activity against Mycobacterium bovis BCG ATCC 35734 assessed as inhibition of bacterial colony formation incubated for 5 days by agar plate method; format: functional; conditions: BCG ATCC 35734, 120 h, time 5 day, read-out: MBC99.9

With `O=C(NC1CCCCCCC1)c1cc2cc(F)ccc2[nH]1` the MIC90 [1] was 0.61 µM (≈ 0.176 µg/mL).
`O=C(NC1CCCCCCC1)c1cc2ccccc2[nH]1` showed an MIC90 [1] of 0.52 µM (≈ 0.141 µg/mL).
`FC(F)(F)c1ccc2cc(CNC3CCCCCCC3)sc2c1` showed an MIC90 [1] of 0.78 µM (≈ 0.266 µg/mL).
With `O=C(NC1CCCCCCC1)c1cc2ccc(C(F)(F)F)cc2[nH]1` the MIC50 [1] was 0.02 µM (≈ 0.00677 µg/mL), the MIC90 [1] was 0.04 µM (≈ 0.0135 µg/mL) and the MIC50 [2] was 0.01 µM (≈ 0.00338 µg/mL). For the same compound, the MIC50 [3] was 0.02 µM (≈ 0.00677 µg/mL), the MIC90 [3] was 0.08 µM (≈ 0.0271 µg/mL) and the Activity [4] was “Active”. For the same compound, the MBC [5] was 0.08 µM (≈ 0.0271 µg/mL).
For `O=C(NC1CCCCCC1)c1cc2ccccc2s1`, the MIC90 [1] was 3 µM (≈ 0.82 µg/mL).
`O=C(NC1CCCCCCC1)c1cc2cc(Br)ccc2[nH]1` showed an MIC90 [1] of 1.1 µM (≈ 0.384 µg/mL).
Work on `NNC(=O)c1ccncc1` [ISONIAZID] yielded an MBC [5] of 10 µM (≈ 1.37 µg/mL).
`c1ccc2[se]c(CNC34CC5CC(CC(C5)C3)C4)cc2c1` was tested, and the MIC90 [1] was 2.7 µM (≈ 0.93 µg/mL).
In the case of `c1ccc2[se]c(CNC3CCCCCCC3)cc2c1`, the MIC90 [1] is reported as 2.1 µM (≈ 0.673 µg/mL) and the Activity [4] is reported as “Active”.
`c1ccc2[nH]c(CNC3CCCCCCC3)cc2c1` was tested, and the MIC90 [1] was 0.75 µM (≈ 0.192 µg/mL).
`O=C(NC1CCCCCCC1)c1cc2ccc(C(F)(F)F)cc2s1` was tested, and the MIC90 [1] was 0.4 µM (≈ 0.142 µg/mL).
In the case of `Fc1ccc2cc(CNC3CCCCCCC3)[nH]c2c1`, the MIC90 [1] is reported as 0.43 µM (≈ 0.118 µg/mL).
Compound `O=C(NC1CCCCCCC1)c1cc2cc(O)ccc2[nH]1` has an MIC90 [1] of 48 µM (≈ 13.7 µg/mL).
`Brc1ccc2cc(CNC3CCCCCCC3)sc2c1` gave an MIC90 [1] of 2.2 µM (≈ 0.775 µg/mL).
`FC(F)(F)c1ccc2cc(CNC3CCCCCCC3)[se]c2c1` gave an MIC90 [1] of 2 µM (≈ 0.777 µg/mL).
Compound `O=C(NC1CCCCCCC1)c1cc2ccc(Br)cc2[nH]1` has an MIC90 [1] of 0.06 µM (≈ 0.021 µg/mL).
`O=C(NC1CCCCC1)c1cc2ccccc2[se]1` was tested, and the MIC90 [1] was > 50 µM.
`Brc1ccc2cc(CNC3CCCCCCC3)[nH]c2c1` gave an MIC90 [1] of 0.16 µM (≈ 0.0536 µg/mL).
In the case of `FC(F)(F)c1ccc2cc(CNC3CCCCCCC3)[nH]c2c1`, the MIC50 [1] is reported as 0.04 µM (≈ 0.013 µg/mL), the MIC90 [1] is reported as 0.08 µM (≈ 0.026 µg/mL) and the MIC50 [2] is reported as 0.04 µM (≈ 0.013 µg/mL). The MIC50 [3] was 0.07 µM (≈ 0.0227 µg/mL), the MIC90 [3] was 0.16 µM (≈ 0.0519 µg/mL) and the Activity [4] was “Active”. The MBC [5] was 0.16 µM (≈ 0.0519 µg/mL).
`COc1ccc2[nH]c(C(=O)NC3CCCCCCC3)cc2c1` was tested, and the MIC90 [1] was 0.65 µM (≈ 0.195 µg/mL).
Compound `O=C(NC1CCCCCCC1)c1cc2cc([N+](=O)[O-])ccc2[nH]1` has an MIC90 [1] of 0.41 µM (≈ 0.129 µg/mL).
For `COc1ccc2cc(C(=O)NC3CCCCCCC3)[nH]c2c1`, the MIC90 [1] was 1.1 µM (≈ 0.33 µg/mL).
`O=C(NC12CC3CC(CC(C3)C1)C2)c1cc2ccccc2s1` was tested, and the MIC90 [1] was 0.9 µM (≈ 0.28 µg/mL).
In the case of `Brc1ccc2cc(CNC3CCCCCCC3)[se]c2c1`, the MIC90 [1] is reported as 0.54 µM (≈ 0.216 µg/mL).
With `O=C(NC1CCCCCCC1)c1cc2ccc(F)cc2[nH]1` the MIC90 [1] was 0.18 µM (≈ 0.0519 µg/mL).
`O=[N+]([O-])c1ccc2[nH]c(CNC3CCCCCCC3)cc2c1` showed an MIC90 [1] of 0.69 µM (≈ 0.208 µg/mL).
For `Cc1cc(C)c2cc(C(=O)NC3CCCCCCC3)[nH]c2c1`, the MIC90 [1] was 0.04 µM (≈ 0.0119 µg/mL).
For `c1ccc2sc(CNC3CCCCCC3)cc2c1`, the MIC90 [1] was 5 µM (≈ 1.3 µg/mL).
For `O=C(NC1CCCCCCC1)c1cc2ccc(Br)cc2[se]1`, the MIC90 [1] was 0.78 µM (≈ 0.322 µg/mL).
For `NC(=O)c1cc2ccccc2s1`, the MIC90 [1] was > 50 µM.
With `c1ccc2sc(CNC3CCCCCCC3)cc2c1` the MIC90 [1] was 3.4 µM (≈ 0.93 µg/mL) and the Activity [4] was “Active”.
In the case of `c1ccc2[se]c(CNC3CCCCCC3)cc2c1`, the MIC90 [1] is reported as 5 µM (≈ 1.53 µg/mL).
For `O=C(NC1CCCCC1)c1cc2ccc(C(F)(F)F)cc2[nH]1`, the MIC90 [1] was 1.6 µM (≈ 0.497 µg/mL).
`COc1ccc2[nH]c(CNC3CCCCCCC3)cc2c1` gave an MIC90 [1] of 1.5 µM (≈ 0.43 µg/mL).
For `Clc1ccc2cc(CNC3CCCCCCC3)[nH]c2c1`, the MIC90 [1] was 0.1 µM (≈ 0.0291 µg/mL).
Work on `O=C(NC12CC3CC(CC(C3)C1)C2)c1cc2ccccc2[se]1` yielded an MIC90 [1] of 1 µM (≈ 0.358 µg/mL).
`c1ccc(COc2ccc3[nH]c(CNC4CCCCCCC4)cc3c2)cc1` was tested, and the MIC90 [1] was 0.31 µM (≈ 0.112 µg/mL).
`O=C(NC1CCCCCCC1)c1cc2ccccc2s1` was tested, and the MIC90 [1] was 0.5 µM (≈ 0.144 µg/mL) and the Activity [4] was “Active”.
Work on `Fc1ccc2[nH]c(CNC3CCCCCCC3)cc2c1` yielded an MIC90 [1] of 0.33 µM (≈ 0.0905 µg/mL).
`O=C(NC1CCCCCCC1)c1cc2ccc(Br)cc2s1` was tested, and the MIC90 [1] was 0.8 µM (≈ 0.293 µg/mL).
`O=C(NC1CCCCCCC1)c1cc2cc(OCc3ccccc3)ccc2[nH]1` gave an MIC90 [1] of 0.17 µM (≈ 0.064 µg/mL).
For `O=C(NC1CCCCCCC1)c1cc2ccc(C(F)(F)F)cc2[se]1`, the MIC90 [1] was 1.8 µM (≈ 0.724 µg/mL).
`COc1ccc2cc(CNC3CCCCCCC3)[nH]c2c1` was tested, and the MIC90 [1] was 1.2 µM (≈ 0.344 µg/mL).
In the case of `O=C(NC1CCCCCCC1)c1cc2cc(Cl)ccc2[nH]1`, the MIC90 [1] is reported as 0.8 µM (≈ 0.244 µg/mL).
Work on `Brc1ccc2[nH]c(CNC3CCCCCCC3)cc2c1` yielded an MIC90 [1] of 0.74 µM (≈ 0.248 µg/mL).
For `c1ccc2[se]c(CNC3CCCCC3)cc2c1`, the MIC90 [1] was > 35 µM.
With `O=C(NC1CCCCC1)c1cc2ccccc2s1` the MIC90 [1] was > 50 µM.
For `O=C(NC1CCCCCC1)c1cc2ccc(C(F)(F)F)cc2[nH]1`, the MIC90 [1] was 0.21 µM (≈ 0.0681 µg/mL).
For `c1ccc2sc(CNC34CC5CC(CC(C5)C3)C4)cc2c1`, the MIC90 [1] was 3.6 µM (≈ 1.07 µg/mL).
With `O=C(NC1CCCCCCC1)c1cc2ccc(O)cc2[nH]1` the MIC90 [1] was 11 µM (≈ 3.15 µg/mL).
Work on `O=C(NC1CCCCCCC1)c1cc2ccc(Cl)cc2[nH]1` yielded an MIC90 [1] of 0.11 µM (≈ 0.0335 µg/mL).
In the case of `O=C(NC1CCCCCCC1)c1cc2ccccc2[se]1`, the MIC90 [1] is reported as 0.7 µM (≈ 0.234 µg/mL) and the Activity [4] is reported as “Active”.
`O=C(NC1CCCCCCC1)c1cc2ccc(OCc3ccccc3)cc2[nH]1` gave an MIC90 [1] of 0.07 µM (≈ 0.0264 µg/mL).
Work on `FC(F)(F)c1ccc2cc(CNC3CCCCC3)[nH]c2c1` yielded an MIC90 [1] of 1.1 µM (≈ 0.326 µg/mL).
`Clc1ccc2[nH]c(CNC3CCCCCCC3)cc2c1` showed an MIC90 [1] of 0.22 µM (≈ 0.064 µg/mL).
`Cc1cc(C)c2cc(CNC3CCCCCCC3)[nH]c2c1` showed an MIC90 [1] of 0.25 µM (≈ 0.0711 µg/mL).
`c1ccc2sc(CNC3CCCCC3)cc2c1` was tested, and the MIC90 [1] was > 45 µM.
`O=C(NC1CCCCCC1)c1cc2ccccc2[se]1` showed an MIC90 [1] of 2.7 µM (≈ 0.865 µg/mL).

— ChEMBL document CHEMBL5226308, “Amide-Amine Replacement in Indole-2-carboxamides Yields Potent Mycobactericidal Agents with Improved Water Solubility” (ACS Med Chem Lett, 2021)
